Source: US9272998B1, “Modulation of c-FOS and BDNF protein expression in pentylenetetrazole-kindled mice following the treatment with novel anti-epileptic compound HHL-6” (priority 2015, dated 2016)

What was measured:
[1] = system: scPTZ-induced seizure in mice; assay: subcutaneous PTZ-induced seizure test (scPTZ); type: in vivo; settings: for mortality in scPTZ test: 20 mg/kg of HHL-6 or 7.5 mg/kg of diazepam, PTZ-control 100% mortality; for protection against scPTZ induced mortality / Onset of jerks / Rearing & falling: diazepam 7.5 mg/kg; for protection against scPTZ induced mortality: mortality within 24 hours; for Onset of jerks / Rearing & falling: i.p. 30 min before s.c. PTZ 90 mg/kg, mean of 6 mice; for Onset of jerks: PTZ-control 190; for Rearing & falling: PTZ-control 640
Method: (§1) Albino male NMRI mice weighing 20-25 grams were used. The animals were housed under standard laboratory conditions i.e. 12:12 hr light: dark cycle, temperature (21±2° C.) and air humidity controlled environment. Food and water were provided ad libitum. All experiments were carried out in accordance to the International Guidelines for the Use and Care of Laboratory Animals and approved by Scientific Advisory Committee on Animal Care, Use, and Standards of our institute.
The anticonvulsant effect of HHL-6 using scPTZ test was evaluated by administering 20 mg/kg dose to groups of 6 mice at least 30 min before subcutaneous administration of convulsive dose of PTZ (90 mg/kg). After PTZ administration, animals were isolated and observed for an hour for the presence or absence of different types of seizure patterns. Latency to PTZ-induced threshold seizures was also calculated. The latency to threshold seizure is defined as the interval between the time of the PTZ-injection and the occurrence of first episode of threshold seizure. Protection of testing material against PTZ-induced mortality within 24 hours was also evaluated. In all experiments, diazepam (7.5 mg/kg i.p) was used as positive control.
In Table 3, the HHL-6 and diazepam were injected intraperitoneally 30 min before the administration of subcutaneous pentylenetetrazole (90 mg/kg) in their respective groups. Values are presented as mean for the duration of tonic seizure for 6 mice.

[2] = system: scPTZ-induced kindling in mice; assay: PTZ-induced kindling test (Racine's scale seizure score); type: in vivo
Method: as §1
Sub-convulsive dose (50 mg/kg) of PTZ was given subcutaneously to all groups (n=12/group) except normal control after every 48 hours. In normal control group, instead of PTZ, saline was used. The drug control groups received daily administration of diazepam (7.5 mg/kg). The test group was treated with the HHL-6 (20 mg/kg) once daily. Racine's scale was used to score the seizure activity such as stage 0: no response; stage 1: ear and facial twitching; stage 2: convulsive wave through the body; stage 3: myoclonic jerks, stage 4: clonic-tonic convulsions, turnover into side position; stage 5: generalized clonic-tonic seizures, loss of postural control. Animals showing score 4 or 5 were considered to be fully kindled.

[3] = observed 1-2 hr after treatment
From the text: Animals were transferred into individual cages the day before the experiments to allow them to acclimatize to the new environment. […] For behavioral studies, blind-testing was employed i.e., the experimenter conducting this study was blinded to the given treatment.

[4] = HHL-6 20 mg/kg; 30 min and 1 h after injection
Method: This was examined by Traction test. The forepaws of a mouse were placed on a small twisted wire rigidly supported above a bench top. Normal mice grasped the wire with forepaws and when allowed to hang free, placed at least one hind foot on the wire within 5 seconds. Inability to put up at least one hind foot constituted failure to the traction. The test was conducted at 30 min and 1 h after the injection of saline, diazepam or HHL-6.

[5] = system: c-Fos protein expression; assay: c-Fos immunohistochemistry of brain sections of PTZ-kindled mice (ImageJ densitometry); type: in vivo; settings: for Fluorescence intensity of c-Fos, Amygdala / Fluorescence intensity of c-Fos, Thalamus / Fluorescence intensity of c-Fos, Hippocampus / Fluorescence intensity of c-Fos, Cortex: PTZ-kindled mice, HHL-6 20 mg/kg, DZP 7.5 mg/kg, mean ± S.E.M.; for Fluorescence intensity of c-Fos, Amygdala: normal control 12.23 ± 2.9, PTZ control 38.17 ± 5.08; for Fluorescence intensity of c-Fos, Thalamus: normal control 12.58 ± 1.79, PTZ control 45.36 ± 3.70; for Fluorescence intensity of c-Fos, Hippocampus: normal control 15.29 ± 2.3, PTZ control 44.27 ± 7.43; for Fluorescence intensity of c-Fos, Cortex: normal control 16.31 ± 1.24, PTZ control 40.69 ± 8.2; for c-Fos staining intensity (FIG. 4B): cortical region, kindled animals, normal control 16.31±1.24, PTZ control 40.69±8.2
Method: (§2) Animals were sacrificed 24 hrs after establishment of complete kindling. Cardiac perfusion with chilled PBS buffer (NaCl—8 g, KCl—0.2 g, Na2HPO4×12 H2O—2.85 g, KH2PO4—0.2 g; pH 7.4) containing heparin was performed. Whole brains were removed, post-fixed in ice-cold 2% PFA for 24 hrs at +4° C. and then placed in 30% sucrose until brain samples sank to the bottom of the container. The samples were stored at −80° C. until further processing.
Frozen brain samples were cut into […] thick sections and directly taken on poly L-lysine coated slides and kept at −20° C. overnight. The cryosections were incubated overnight at 4° C. with primary antibody i.e. purified c-Fos (4): sc-52 for c-Fos detection and BDNF (N-20): sc-546 for BDNF detection independently. This was followed by re-incubation with secondary antibody i.e. biotinylated goat anti-mouse IgG (Alexa Flour) for 1 hour at room temperature in dark. The stained sections were observed under fluorescent microscope (Nikon ECLIPSE TE2000-S, Japan). Since the specificity of the primary antibody is very critical therefore, in order to determine specificity, negative controls were also processed by eliminating the step where sections were incubated with their respective primary antibody.
Expression of c-Fos and BDNF protein observed under the fluorescent microscope was analyzed by using software ImageJ (NIH, USA). The image processing program ImageJ helps in multiple imaging system data comparisons taking density (densitometry) in consideration to analyze the images. For each image, background density was determined and subtracted; the remaining particles were considered to represent c-Fos or BDNF expression. Data were obtained from two sections per mouse (n=12 animals per group) and presented as means±S.E.M. cFos and BDNF immunoreactivity in the amygdala, cortex, dorsal hippocampus, and thalamus were centered approximately around 3.6 mm posterior to bregma. Within the hippocampus region, measurements were performed over the layer extending from sub-regions CA1-CA3.
(§3) Data is presented as mean±standard error of the mean (S.E.M.). The seizure activity was analyzed by nonparametric Mann-Whitney U tests. The immunostaining data was analyzed by one-way ANOVA with post hoc Dunnett's multiple comparison tests. Sequential differences among means were calculated at the level of P<0.05 using the SPSS version 10.

[6] = system: BDNF protein expression; assay: BDNF immunohistochemistry of brain sections of PTZ-kindled mice (ImageJ densitometry); type: in vivo; settings: cortical region, kindled animals; normal control 29.53±3.9, PTZ control 57.6±13.6
Method: as §2
Frozen brain samples were cut into […] thick sections and directly taken on poly L-lysine coated slides and kept at −20° C. overnight. The cryosections were incubated overnight at 4° C. with primary antibody i.e. purified c-Fos (4): sc-52 for c-Fos detection and BDNF (N-20): sc-546 for BDNF detection independently. […]
Expression of c-Fos and BDNF protein observed under the fluorescent microscope was analyzed by using software ImageJ (NIH, USA). […] For each image, background density was determined and subtracted; the remaining particles were considered to represent c-Fos or BDNF expression. […]
as §3

[7] = HHL-6 20 mg/kg, PTZ 90 mg/kg s.c.
[8] = PTZ 90 mg/kg s.c., HHL-6 20 mg/kg

Structure (SMILES)	protection from jerks [1, 7]	protection from tonic fore limb and hind limb seizures [1, 7] [%]	mortality in scPTZ test ([1]; PTZ 90 mg/kg s.c.)	protection against scPTZ induced mortality [1, 8] [%]	Onset of jerks ([1]; HHL-6 20 mg/kg) [s]	Rearing & falling ([1]; HHL-6 20 mg/kg) [s]	seizure score (kindling) after treatment day 13 ([2]; HHL-6 20 mg/kg, PTZ 50 mg/kg on alternate days, 18 doses in 36 days)	seizure score (kindling) ([2]; treatment day 9 till 13, HHL-6 20 mg/kg once daily, PTZ 50 mg/kg s.c. every 48 hours, PTZ-kindled control average 4.9)	alteration in normal behavior pattern [3]	hyper-excitability or sedation [3]	muscle relaxant activity (traction test) [4]	Fluorescence intensity of c-Fos, Amygdala [5] [arbitrary unit]	Fluorescence intensity of c-Fos, Thalamus [5] [arbitrary unit]	Fluorescence intensity of c-Fos, Hippocampus [5] [arbitrary unit]	Fluorescence intensity of c-Fos, Cortex [5] [arbitrary unit]	c-Fos staining intensity (FIG. 4B) [5]	BDNF staining intensity (FIG. 5B) [6]	seizure pattern till the end of the kindling protocol ([2]; diazepam 7.5 mg/kg daily, PTZ 50 mg/kg s.c. every 48 hours)
CCCCCC(=O)NCCc1c(C(C)=O)[nH]c2c(OC)cccc12 [HHL-6, 2-acetyl-3-(2-hexanoylamidoethyl)-7-methoxyindole]	unable to provide protection from jerks	100	Mortality was not demonstrated	100	460	0	0	0.3	did not show any alteration in their normal behavior pattern	not observed	did not observed muscle relaxant activity	15.21 ± 2.3	15.58 ± 3.74	16.92 ± 2.75	18.24 ± 3.2	18.24±3.2	26.2±5.4	–
CN1C(=O)CN=C(c2ccccc2)c2cc(Cl)ccc21 [diazepam, reference compound]	–	–	Mortality was not demonstrated	100	0	0	–	–	–	–	–	14.94 ± 1.99	18.33 ± 2.19	20.09 ± 3.77	17.28 ± 3.6	17.28±4.6	31.5±7.6	did not exhibit any seizure pattern
